Results as given in patent US20170205398A1, “DRUG SCREENING AND POTENCY ASSAYS” (REGENMED (CAYMAN) LTD., priority 2011, published 2017).

Test system: γ-glutamyl transpeptidase (GGT)
Assay: Amphotericin B knockdown of SRC/NKA ex vivo GGT (western blot band density, semilogarithmic dose response)
Format: cell-based, human
From the text: Morphological, genotypic, phenotypic and functional changes to 2D cultured SRC were monitored to 72hrs following exposure to escalating doses of the well known nephrotoxin, Amphotericin B (Amp B). The TC50 was estimated by Amp B knockdown of SRC/NKA ex vivo GGT activity.
GGT inhibition detected by western blot is shown in below in Table 16.1.
Results from semilogarithmic dose response analysis are shown below in Table 16.2.

Q: For `C[C@@H]1[C@H](O)[C@@H](C)/C=C/C=C/C=C/C=C/C=C/C=C/C=C/[C@H](O[C@@H]2O[C@H](C)[C@@H](O)[C@H](N)[C@@H]2O)C[C@@H]2O[C@](O)(C[C@@H](O)C[C@@H](O)[C@H](O)CC[C@@H](O)C[C@@H](O)CC(=O)O[C@H]1C)C[C@H](O)[C@H]2C(=O)O` [Amphotericin B], which IC50 (2D cultured SRC, exposure to 72 hrs, sigmoidal fit Log(inhibitor) vs response, read-out: IC50 of inhibitory effect on SRC-mediated GGT) is on record?
A: 32.3 µM

Q: What about the LOGIC50 (Log(inhibitor) vs response fit, 2D cultured SRC) of the same compound?
A: 1.510

Q: What about the “GGT western blot band density (response)” value ([c] 0.01) of the same compound?
A: 18764

Q: And the “inv response (inverse of band density)” value ([c] 0.01)?
A: 5.329E−05

Q: And the “GGT western blot band density (response)” value ([c] 0.1)?
A: 18959

Q: What about the “inv response (inverse of band density)” value ([c] 0.1) of the same compound?
A: 5.275E−05

Q: And the “GGT western blot band density (response)” value ([c] 1)?
A: 17112

Q: What about the “inv response (inverse of band density)” value ([c] 1) of the same compound?
A: 5.844E−05

Q: And the “GGT western blot band density (response)” value ([c] 10)?
A: 16611

Q: And the “inv response (inverse of band density)” value ([c] 10)?
A: 6.02E−05

Q: What about the “GGT western blot band density (response)” value ([c] 100) of the same compound?
A: 8227

Q: And the “inv response (inverse of band density)” value ([c] 100)?
A: 0.0001216

Q: What about the “GGT western blot band density (response)” value ([c] 1000) of the same compound?
A: 8000

Q: And the “inv response (inverse of band density)” value ([c] 1000)?
A: 0.000125

Q: And the “GGT western blot band density (response)” value ([c] 10000)?
A: 7800

Q: And the “inv response (inverse of band density)” value ([c] 10000)?
A: 0.0001282
